Where “and” joins values, the source holds several entries; their conditions need not be identical. Equal values may be shown once.

This assay deals with adult bovine cartilage cells. Description: GAG synthesis (35-sulfate incorporation) in cultured cartilage cells. The class given is cell-based. The following applies: 4 hours incubation, individual agent. How it is done: Articular cartilage was resected from human or animal joints aseptically and placed into a large petri dish in a small amount of DMEM/F-12 or F-12. The tissue was diced to 1-2 mm dimensions and transferred to a small culture flask containing 20 mL DMEM or F-12+400 u/mL collagenase. The flask was placed on the shaker and incubated overnight.
The cell digest was repeatedly aspirated to increase release of cells. The cell digest was then placed into a 50 mL sterile centrifuge tube and centrifuged in the Beckman at 1000 RPM for 10 minutes. The medium was discarded by pipette and fresh DMEM/F-12 containing 1% FCS added. Depending on the size of the pellet, about […] medium was added. Cell counts were determined by haemocytometer and the digest made up to a concentration of 100,000 cells/0.2 mL.
To conduct GAG synthesis, 0.2 mL was aliquoted into each well of a 96 well plate using an 8 channel pipetter and the cells allowed to attach for 24 hours. The media was removed and 0.3 mL of fresh 1% FCS media added for 2-3 days. On the day of the experiment, the media was removed and the experimental solutions containing 35-sulfate isotope were added. The incubation was continued for 4 hours. Termination: at the end of the incubation period, the labeling media was removed, the cell layer was rinsed repeatedly with cold 0.3 mL DMEM or F-12 (about 5 times.), and the cell layer was frozen for counting.
The cell layer for both the synthesis experiments were heated at 50 degrees after adding 100 ul 1 N NaOH for a period of 2 hours. 200 ul scintillant was added and the plates were placed in the counter. The data was expressed as CPM/100,000 cells.

As to `C[S+](CC[C@H](N)C(=O)[O-])C[C@H]1O[C@@H](n2cnc3c(N)ncnc32)[C@H](O)[C@@H]1O` (some centres unmarked) [1% Sam, S-adenosylmethionine], the “Indv. Agents: CPM/100,000 cells” value is given as 123 CPM/100,000 cells. Also, the “Indv. Agents: CPM/100,000 cells” value (listed as 3% Sam) is listed as 42 CPM/100,000 cells.
Take `CCCCC/C=C\C/C=C\C/C=C\C/C=C\CCCC(=O)O` [AA, Arachadonic Acid]: the “Indv. Agents: CPM/100,000 cells” value was 70 CPM/100,000 cells.
In the case of `N[C@H]1C(O)O[C@H](CO)[C@@H](O)[C@@H]1O` (some centres unmarked) [Glu-H, Glucosamine], the “Indv. Agents: CPM/100,000 cells” value is listed as 117 CPM/100,000 cells.
For the molecule Chondroitin [CHSO4-L], the “Indv. Agents: CPM/100,000 cells” value is reported as 64 CPM/100,000 cells. The “Indv. Agents: CPM/100,000 cells” value (listed as ChS04-H) is on record as 50 CPM/100,000 cells.
For Collagen, the “Indv. Agents: CPM/100,000 cells” value was 118 CPM/100,000 cells (3×) and 70 CPM/100,000 cells.
Pentosan [10Pentos]: the “Indv. Agents: CPM/100,000 cells” value is 76 CPM/100,000 cells.

The values are drawn from patent US20070141181A1, “Use of anabolic agents, anti-catabolic agents, antioxidant agents, and analgesics for protection, treatment and repair of connective tissues in humans and animals” (NUTRAMAX LABORATORIES, INC., priority 1998, published 2007).
